Results: patent US10364245B2 (CHIESI FARMACEUTICI S.p.A., priority 2017, dated 2019)
Where a name gives a salt, the structure may show the parent alone.

Assays:
[1] = system: Peripheral Blood Mononuclear Cells (PBMCs), TNFα release; experiment: LPS-stimulated PBMC TNFα release assay; format: cell-based; details: human PBMC, LPS (10 ng/ml), 18 h, compound 1 h before LPS; read-out: LPS-stimulated PBMC TNFα release inhibition
Summary of the method: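 TNFα in cell-free supernatant, read on MSD plates, gave % inhibition curves and IC50 (≥3 separate experiments). Healthy-donor PBMCs had 1 h compound exposure at 37 °C in 1% FBS medium, then 18 h stimulation with 10 ng/ml LPS, after a 3 h serum-free rest.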

p38 alpha = target: T1, p38 alpha (Homo sapiens, UniProt Q16539); experiment: P38 alpha enzyme inhibition assay (Alphascreen kinase activity assay); format: biochemical; details: 100 pM p38 alpha, 2 hours preincubation at 25° C., 250 μM ATP, ATF-2 fusion protein; read-out: p38α inhibition
T1 construct: purchased Invitrogen PV3304
T1 sequence (Q16539 whole entry, the tested form may be a part): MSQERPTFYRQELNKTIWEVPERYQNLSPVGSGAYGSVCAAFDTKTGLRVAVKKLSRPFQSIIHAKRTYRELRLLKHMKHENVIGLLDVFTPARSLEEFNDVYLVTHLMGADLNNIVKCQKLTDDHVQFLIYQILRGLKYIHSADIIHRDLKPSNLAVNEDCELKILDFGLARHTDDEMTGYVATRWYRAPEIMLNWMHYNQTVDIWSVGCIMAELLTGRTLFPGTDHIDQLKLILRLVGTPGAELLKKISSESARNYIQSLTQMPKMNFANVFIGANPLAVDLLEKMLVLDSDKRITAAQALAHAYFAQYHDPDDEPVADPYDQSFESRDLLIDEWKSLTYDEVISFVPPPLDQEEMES
Summary of the method: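 Phosphorylation of ATF-2 fusion protein (0.3 μg/ml) read by AlphaScreen with anti-phospho-ATF2 antibody after 1 h kinase reaction at 25 °C, initiated by 250 μM ATP. Compounds first incubated 2 h at 25 °C with 100 pM p38 alpha in pH 7.5 HEPES buffer, 1% DMSO. IC50 derived from concentration-response data.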

Compound	IC50 (p38 alpha) [nM]	IC50 [1] [nM]
COCCN(CCNC(=O)c1nc(NC(=O)N[C@H]2CC[C@@H](Oc3ccc4nnc(C(C)(C)C)n4c3)c3ccccc32)cc(C(C)(C)C)n1)CCOC [Example 92, N-(2-(bis(2-methoxyethyl)amino)-ethyl)-4-(tert-butyl)-6-(3-((1S,4R)-4-((3-(tert-butyl)-[1,2,4]triazolo[4,3-a]pyridin-6-yl)oxy)-1,2,3,4-tetrahydronaphthalen-1-yl)ureido)pyrimidine-2-carboxamide]	1 to 10	> 5
COC(C)(C)c1nnc2ccc(O[C@@H]3CC[C@H](NC(=O)Nc4cc(C(C)(C)C)nc(C(=O)NCCN5CCOCC5)n4)c4ccccc43)cn12 [Example 95, 4-(tert-butyl)-6-(3-((1S,4R)-4-((3-(2-methoxypropan-2-yl)-[1,2,4]triazolo[4,3-a]pyridin-6-yl)oxy)-1,2,3,4-tetrahydronaphthalen-1-yl)ureido)-N-(2-morpholinoethyl)-pyrimidine-2-carboxamide]	1 to 10	> 5
COC(C)(C)c1nnc2ccc(O[C@@H]3CC[C@H](NC(=O)Nc4cc(C(C)(C)C)nc(C(=O)NCCN(C)C)n4)c4ccccc43)cn12 [Example 96, 4-(tert-butyl)-N-(2-(dunethylamino)ethyl)-6-(3-((1S,4R)-4-((3-(2-methoxypropan-2-yl)-[1,2,4]triazolo[4,3-a]pyridin-6-yl)oxy)-1,2,3,4-tetrahydronaphthalen-1-yl)ureido)pyrimidine-2-carboxamide]	1 to 10	1 to 5
CC(C)(C)Cc1nnc2ccc(O[C@@H]3CC[C@H](NC(=O)Nc4cc(C(C)(C)C)nc(C(=O)NCCN5CCOCC5)n4)c4ccccc43)cn12 [Example 99, 4-(tert-butyl)-N-(2-morpholinoethyl)-6-(3-((1S,4R)-4-((3-neopentyl-[1,2,4]triazolo[4,3-a]pyridin-6-yl)oxy)-1,2,3,4-tetrahydronaphthalen-1-yl)ureido)pyrimidine-2-carboxamide]	1 to 10	> 5
CC(C)(C)c1cc(NC(=O)N[C@H]2CC[C@@H](Oc3ccc4nnc(C(C)(C)C)n4c3)c3ccccc32)nc(CNC(=O)CCN2CCOCC2)n1 [Example 103, N-((4-(tert-butyl)-6-(3-((1S,4R)-4-((3-(tert-butyl)-[1,2,4]-triazolo[4,3-a]pyridin-6-yl)oxy)-1,2,3,4-tetrahydronaphthalen-1-yl)ureido)pyrimidin-2-yl)methyl)-3-morpholinopropanamide]	1 to 10	> 5
COC1CN(CCNC(=O)c2nc(NC(=O)N[C@H]3CC[C@@H](Oc4ccc5nnc(C(C)(C)C)n5c4)c4ccccc43)cc(C(C)(C)C)n2)C1 [Example 104, 4-(tert-butyl)-6-(3-((1S,4R)-4-((3-(tert-butyl)-[1,2,4]triazolo[4,3-a]pyridin-6-yl)oxy)-1,2,3,4-tetrahydronaphthalen-1-yl)ureido)-N-(2-(3-methoxyazetidin-1-yl)ethyl)pyrimidine-2-carboxamide]	1 to 10	< 1
CC(C)(C)c1cc(NC(=O)N[C@H]2CC[C@@H](Oc3ccc4nnc(C(C)(C)C)n4c3)c3ccccc32)nc(C(=O)NCCN2CCC(O)CC2)n1 [Example 108, 4-(tert-butyl)-6-(3-((1S,4R)-4-((3-(tert-butyl)-[1,2,4]triazolo[4,3-a]pyridin-6-yl)oxy)-1,2,3,4-tetrahydronaphthalen-1-yl)ureido)-N-(2-(4-hydroxypiperidin-1-yl)ethyl)pyrimidine-2-carboxamide]	< 1	> 5
CC(C)(C)c1cc(NC(=O)N[C@H]2CC[C@@H](Oc3ccc4nnc(C5(C)CCC5)n4c3)c3ccccc32)nc(C(=O)NCCN2CCOCC2)n1 [Example 109, 4-(tert-butyl)-6-(3-((1S,4R)-4-((3-(1-methylcyclobutyl)-[1,2,4]triazolo[4,3-a]pyridin-6-yl)oxy)-1,2,3,4-tetrahydronaphthalen-1-yl)ureido)-N-(2-morpholinoethyl)-pyrimidine-2-carboxamide]	< 1	> 5
CN1CCC[C@H]1C(=O)NCc1nc(NC(=O)N[C@H]2CC[C@@H](Oc3ccc4nnc(C(C)(C)C)n4c3)c3ccccc32)cc(C(C)(C)C)n1 [Example 110, (S)-N-((4-(tert-butyl)-6-(3-((1S,4R)-4-((3-(tert-butyl)-[1,2,4]triazolo[4,3-a]pyridin-6-yl)oxy)-1,2,3,4-tetrahydronaphthalen-1-yl)ureido)pyrimidin-2-yl)methyl)-1-methylpyrrolidine-2-carboxamide]	1 to 10	1 to 5
CC(C)(C)c1cc(NC(=O)N[C@H]2CC[C@@H](Oc3ccc4nnc(C(C)(C)C)n4c3)c3ccccc32)nc(C(=O)NCCCN2CCCOCC2)n1 [Example 111, N-(3-(1,4-Oxazepan-4-yl)propyl)-4-(tert-butyl)-6-(3-((1S,4R)-4-((3-(tert-butyl)-[1,2,4]triazolo[4,3-a]pyridin-6-yl)oxy)-1,2,3,4-tetrahydronaphthalen-1-yl)ureido)pyrimidine-2-carboxamide partial formate salt]	< 1	> 5
CN(C)CC(C)(C)NC(=O)c1nc(NC(=O)N[C@H]2CC[C@@H](Oc3ccc4nnc(C(C)(C)C)n4c3)c3ccccc32)cc(C(C)(C)C)n1 [Example 112, 4-(tert-butyl)-6-(3-((1S,4R)-4-((3-(tert-butyl)-[1,2,4]triazolo[4,3-a]pyridin-6-yl)oxy)-1,2,3,4-tetrahydronaphthalen-1-yl)ureido)-N-(1-(dimethylamino)-2-methylpropan-2-yl)pyrimidine-2-carboxamide]	1 to 10	1 to 5
CC(C)(C)c1cc(NC(=O)N[C@H]2CC[C@@H](Oc3ccc4nnc(C(C)(C)C)n4c3)c3ccccc32)nc(CN2CCNC(=O)C2)n1 [Example 113, 1-(6-(tert-Butyl)-2-((3-oxopiperazin-1-yl)methyl)pyrimidin-4-yl)-3-((1S,4R)-4-((3-(tert-butyl)-[1,2,4]-triazolo[4,3-a]pyridin-6-yl)oxy)-1,2,3,4-tetrahydronaphthalen-1-yl)urea partial formate salt]	1 to 10	> 5

Continued, in another order:

IC50 (p38 alpha) [nM]	Compound	IC50 [1] [nM]
< 1	CC(C)(C)c1cc(NC(=O)N[C@H]2CC[C@@H](Oc3ccc4nnc(C(C)(C)C)n4c3)c3ccccc32)nc(C(=O)NCCN2CC[C@@H](O)C2)n1 [Example 93, 4-(tert-butyl)-6-(3-((1S,4R)-4-((3-(tert-butyl)-[1,2,4]triazolo[4,3-a]pyridin-6-yl)oxy)-1,2,3,4-tetrahydronaphthalen-1-yl)ureido)-N-(2-((R)-3-hydroxypyrrolidin-1-yl)ethyl)pyrimidine-2-carboxamide]	> 5
< 1	CC(C)(C)c1cc(NC(=O)N[C@H]2CC[C@@H](Oc3ccc4nnc(C(C)(C)C)n4c3)c3ccccc32)nc(C(=O)NCCN2CC[C@H](O)C2)n1 [Example 94, 4-(tert-butyl)-6-(3-((1S,4R)-4-((3-(tert-butyl)-[1,2,4]triazolo[4,3-a]pyridin-6-yl)oxy)-1,2,3,4-tetrahydronaphthalen-1-yl)ureido)-N-(2-((S)-3-hydroxypyrrolidin-1-yl)ethyl)pyrimidine-2-carboxamide]	> 5
< 1	COCC(C)(C)c1nnc2ccc(O[C@@H]3CC[C@H](NC(=O)Nc4cc(C(C)(C)C)nc(C(=O)NCCN5CCOCC5)n4)c4ccccc43)cn12 [Example 97, 4-(tert-butyl)-6-(3-((1S,4R)-4-((3-(1-methoxy-2-methylpropan-2-yl)-[1,2,4]triazolo[4,3-a]pyridin-6-yl)oxy)-1,2,3,4-tetrahydronaphthalen-1-yl)ureido)-N-(2-morpholinoethyl)-pyrimidine-2-carboxamide]	> 5
< 1	CC[C@H](C)c1nnc2ccc(O[C@@H]3CC[C@H](NC(=O)Nc4cc(C(C)(C)C)nc(C(=O)NCCN(C)C)n4)c4ccccc43)cn12 [Example 100, 4-(tert-butyl)-6-(3-((1S,4R)-4-((3-((S)-sec-butyl)-[1,2,4]triazolo[4,3-a]pyridin-6-yl)oxy)-1,2,3,4-tetrahydronaphthalen-1-yl)ureido)-N-(2-(dimethylamino)ethyl)-pyrimidine-2-carboxamide]	1 to 5
< 1	CC[C@H](C)c1nnc2ccc(O[C@@H]3CC[C@H](NC(=O)Nc4cc(C(C)(C)C)nc(C(=O)NCCN5CCOCC5)n4)c4ccccc43)cn12 [Example 102, 4-(tert-butyl)-6-(3-((1S,4R)-4-((3-((S)-sec-butyl)-[1,2,4]triazolo[4,3-a]pyridin-6-yl)oxy)-1,2,3,4-tetrahydronaphthalen-1-yl)ureido)-N-(2-morpholinoethyl)-pyrimidine-2-carboxamide]	> 5
< 1	CC[C@H](C)c1nnc2ccc(O[C@@H]3CC[C@H](NC(=O)Nc4cc(C(C)(C)C)nc(C(=O)NCCN(C)CCOC)n4)c4ccccc43)cn12 [Example 105, 4-(tert-butyl)-6-(3-((1S,4R)-4-((3-((S)-sec-butyl)-[1,2,4]triazolo[4,3-a]pyridin-6-yl)oxy)-1,2,3,4-tetrahydronaphthalen-1-yl)ureido)-N-(2-((2-methoxyethyl)(methyl)-amino)ethyl)pyrimidine-2-carboxamide]	1 to 5
< 1	CN(CCNC(=O)c1nc(NC(=O)N[C@H]2CC[C@@H](Oc3ccc4nnc(C(C)(C)C)n4c3)c3ccccc32)cc(C(C)(C)C)n1)C1COC1 [Example 107, 4-(tert-butyl)-6-(3-((1S,4R)-4-((3-(tert-butyl)-[1,2,4]triazolo[4,3-a]pyridin-6-yl)oxy)-1,2,3,4-tetrahydronaphthalen-1-yl)ureido)-N-(2-(methyl(oxetan-3-yl)amino)ethyl)-pyrimidine-2-carboxamide]	> 5
